Source: US8552050B2, “Activators of pyruvate kinase M2 and methods of treating disease” (Beth Israel Deaconess Medical Center, priority 2007, dated 2013)
Values belong to the compound of their own block, whether it stands above or below them. Square brackets hold non-standard residues; d marks the D form. Ends that are not written are not given here. pY = N[C@@H](Cc1ccc(OP(=O)(O)O)cc1)C(=O)O

Experiments:
PKM2 [1] = molecular target: T1, PKM2 (Homo sapiens, UniProt P14618); test: PKM2 activator assay, LDH-coupled, no FBP added; type: biochemical
Method: (§1) For the activator assays, a candidate compound (2 μl 100×) was added into a well. In a control well, 2 μl of DMSO was added in place of the candidate compound. […] The mixture incubated at room temperature for 5 minutes. Immediately prior to measurement readings, 10 μl PEP (0.5 mM) were added to each well. No FBP was added.
Target sequence in this assay (P14618 whole entry): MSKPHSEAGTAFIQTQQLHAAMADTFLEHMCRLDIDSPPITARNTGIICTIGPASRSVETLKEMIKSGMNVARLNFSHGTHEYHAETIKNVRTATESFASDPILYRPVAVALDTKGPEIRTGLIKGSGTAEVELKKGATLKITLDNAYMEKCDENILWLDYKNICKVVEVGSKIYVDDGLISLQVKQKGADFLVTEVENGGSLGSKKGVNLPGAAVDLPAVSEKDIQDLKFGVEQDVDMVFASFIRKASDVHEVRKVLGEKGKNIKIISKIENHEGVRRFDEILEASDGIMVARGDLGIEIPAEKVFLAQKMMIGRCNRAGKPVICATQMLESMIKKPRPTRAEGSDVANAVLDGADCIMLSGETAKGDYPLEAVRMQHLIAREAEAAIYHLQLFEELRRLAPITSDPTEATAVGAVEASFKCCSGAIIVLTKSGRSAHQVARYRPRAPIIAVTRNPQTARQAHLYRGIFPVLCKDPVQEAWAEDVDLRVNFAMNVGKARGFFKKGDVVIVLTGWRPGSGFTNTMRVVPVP

recombinant PKM1 = molecular target: T2, recombinant PKM1 (Homo sapiens, UniProt P14618); test: 14C-FBP retention on protein after dialysis, scintillation counting; type: binding; settings: ~10 μM 14C-FBP, 1 μM protein
T2 construct: made in house
Method: (§2) However, FBP concentrations following protein purification would be orders of magnitude lower than this value. […] The PKM1, PKM2, and no-protein control were incubated with ^14C-FBP for 30 minutes at room temperature and then […] dialyzed against >2 L of buffer using 10,000 MWCO dialysis cassettes (Pierce) for at least 7 hours. After dialysis, samples were recovered and the amount of ^14C-FBP retained in each dialysis cassette was determined by scintillation counting. […] Upon further analysis, it was estimated that ^14C FBP is retained at roughly half a mole per mole on the PKM2 protein.

PKM2 [2] = molecular target: T1, PKM2; settings: Yamada and Noguchi 1999; cited from earlier work
Target sequence in this assay (P14618 whole entry, species assumed): as the sequence (P14618 whole entry) above

PKM2 [3] = molecular target: T1, PKM2; test: FBP competition for binding of recombinant PKM2 to phosphoTyr peptide affinity matrix; set-up: His6 (N); made in house; host or cells: E. coli BL21(DE3)pLysS; settings: FIG. 2b
Method: To determine if the FBP binding pocket on PKM2 coordinates phosphoTyr peptide binding, it was assessed whether FBP could compete for binding of PKM2 to a phosphoTyr peptide library column. Recombinant protein was synthesized by cloning human PKM2 into a pET28a vector (Novagen) at NdeI and BamHI sites and PKM2 was expressed as a N-terminal His6 tag fusion protein. The protein was expressed and purified with a standard protocol. Briefly, pET28a-PKM2 was transformed into BL2 I (DE3)pLysS cells and grown to an OD600 of 0.8 and induced with 0.5 mM IPTG for seven hours at room temperature. Cells were lysed using lysozyme in lysis buffer (50 mM Tris, pH 8.0, 10 mM MgCl2, 200 mM NaCl, 100 mM KCl, 20% glycerol, 10 mM imidazole, 1 mM PMSF). The cell lysate was cleared by centrifugation. PKM2 was purified by batch binding to Ni—NTA resin (Qiagen). The resin was then washed with lysis buffer containing 30 mM imidazole for 200 column volumes, and His6-tag-PKM2 was eluted with 250 mM imidazole. The protein was dialyzed overnight at 4° C. to remove the imidazole.
Recombinant PKM2 was incubated with increasing amounts of FBP and then flowed over the phosphoTyr peptide affinity matrix. 20 μM FBP was able to compete for binding of recombinant PKM2 to phosphoTyr peptides (FIG. 2b). […]
Target sequence in this assay (P14618 whole entry): as above

PKM2 [4] = molecular target: T1, PKM2; test: 14C-FBP retention on protein after dialysis, scintillation counting; type: binding; set-up: His6 (N); made in house; host or cells: E. coli BL21(DE3)pLysS
Method: as §2
Target sequence in this assay (P14618 whole entry): as above

Flag-tagged PKM2 = molecular target: T3, Flag-tagged PKM2 (Mus musculus, UniProt P52480); test: 3H bound to immunoprecipitated Flag-tagged PKM2 in cells cultured with 3H-glucose; type: cell-based; settings: 15-minute treatment with pervanadate
T3 construct: expressed in transfected cells
Method: Next, the ability of phosphoTyr protein binding to catalyze the release of FBP from PKM2 in vivo was tested. To address this, cells were cultured overnight with ^3H-glucose that can be metabolized to ^3H-FBP. Flag-tagged PKM2 was immunoprecipitated and the amount of ^3H bound to PKM2 with and without pervanadate-treatment was determined by scintillation counting.

PKM2-expressing cells [5] = test: Incorporation of metabolites from 14C-glucose into lipids; type: cell-based
Excerpt: (§3) Consistent with this model, a 25% increase in the incorporation of metabolites from ^14C-glucose into lipids upon pervanadate-treatment of PKM2-expressing cells was observed. […] A similar increase in the incorporation of ^14C-glucose metabolites into lipids was observed upon pervanadate stimulation of 293 cells.

PKM2-expressing cells [6] = test: Cellular oxygen consumption after acute pervanadate stimulation; type: cell-based
Method: as §3
Cellular oxygen consumption rates were measured using a water-jacketed (37° C.) anaerobic chamber fitted with a polarographic oxygen electrode as described previously (Vander Heiden et al, Mol Cell Biol 21: 5899-912, 2001). The electrode was calibrated with 150 mM NaCl equilibrated to room air at 37° C. (corresponding to 199 nmol O2/ml).

pyruvate kinase = settings: pervanadate stimulation
Method: Pyruvate kinase activity was measured according to published methods by a continuous assay coupled to lactate dehydrogenase (LDH). The change in absorbance at 340 nm due to oxidation of NADH was measured using a Victor^3 1420 Multilabel Counter spectrophotometer (PerkinElmer, Inc.). Kinetic assays for activity determinations contained recombinant PK (20-100 ng) or cell lysate (1-2 μg), Tris (pH 7.5) (50 mM), KCl (100 mM), MgCl2 (5 mM), ADP (0.6 mM), PEP (0.5 mM), NADH (180 pM), FBP (10 pM), and LDH (8 units).

PKM2 [7] = molecular target: T1, PKM2; test: Release of 14C-FBP from FBP-loaded recombinant PKM2 after peptide exposure and dialysis; type: binding; set-up: His6 (N); made in house; host or cells: E. coli BL21(DE3)pLysS; settings: 14C counts retained after dialysis; FIG. 4e
Method: To examine the effect of phosphoTyr peptide binding on FBP-bound PKM2, a peptide-binding motif for PKM2 was obtained using traditional peptide library screening. Both the phosphorylated (P-M2tide) and unphosphorylated (NP-M2tide) versions of the optimal peptide were synthesized: P-M2tide (GGAVDDDpYAQFANGG SEQ ID NO:1) and NP-M2tide (GGAVDDDYAQFANGG SEQ ID NO:2) (FIG. 5). The FBP-loaded recombinant PKM2 was incubated with P-M2tide or NP-M2tide, the unbound FBP and peptide were dialyzed away, and the counts retained on the PKM2 were measured.
Target sequence in this assay (P14618 whole entry): as above

PKM2 [8] = molecular target: T1, PKM2; test: PKM2 inhibition assay, LDH-coupled, FBP added in excess; type: biochemical; settings: read-out: Inhibition of PKM2 Activity
Method: as §1, with “the inhibition” for “the activator”, “for 30” for “for 5”, “mM) and 2 μl FBP/H2O (0.5 μM)” for “mM)”, “well. The” for “well. No”, “was added in excess.” for “was added.”
Target sequence in this assay (P14618 whole entry): as above

M1 and M2 rescue cells = test: Proliferation of M1 and M2 rescue cells with oligomycin; type: cell-based, human; settings: subsaturating oligomycin (125 nM); M1 vs M2 rescue cells
Method: To examine whether PKM2 expression enhances tumor cell growth under lowered oxygen and glucose conditions, proliferation rates of the M1 and M2 rescue cells (M2 knockdown cells expressing mM1 or mM2) were measured in physiologic glucose levels and hypoxic oxygen. […] The percent decrease in oxygen consumption following addition of subsaturating amounts of oligomycin, a specific inhibitor of mitochondrial ATP synthase, was the same in both the M1 and M2 cells.
5×10^4 cells were seeded in triplicate in 6-well plates and accurate cell counts were obtained every 24 hours using a Coulter particle analyzer for a 3-5 day period. Time zero was taken 16 hours post-seeding. Cells grown in low oxygen were incubated in a sealed hypoxia chamber set to 0.5% oxygen. Cells grown in the presence of oligomycin were treated with 125 nM oligomycin at time zero.

PKM2 [9] = molecular target: T1, PKM2; test: Recombinant PKM2 activity with P-M2tide / NP-M2tide, LDH-coupled assay; type: biochemical; set-up: His6 (N); made in house; host or cells: E. coli BL21(DE3)pLysS; settings: dose-dependent; FIG. 6a
Excerpt: Multiple phosphoTyr peptides comprising in vivo phosphorylation sites previously identified on metabolic proteins (Villen et al., Proc. Natl. Acad. Sci. USA 104: 1488-93, 2007) were synthesized. Several of these phosphoTyr peptides, as well as multiple phosphoTyr peptides designed after known tyrosine kinase motifs, were also shown to inhibit PKM2 activity (FIG. 6b).
Target sequence in this assay (P14618 whole entry): as above

T3 sequence (P52480 whole entry): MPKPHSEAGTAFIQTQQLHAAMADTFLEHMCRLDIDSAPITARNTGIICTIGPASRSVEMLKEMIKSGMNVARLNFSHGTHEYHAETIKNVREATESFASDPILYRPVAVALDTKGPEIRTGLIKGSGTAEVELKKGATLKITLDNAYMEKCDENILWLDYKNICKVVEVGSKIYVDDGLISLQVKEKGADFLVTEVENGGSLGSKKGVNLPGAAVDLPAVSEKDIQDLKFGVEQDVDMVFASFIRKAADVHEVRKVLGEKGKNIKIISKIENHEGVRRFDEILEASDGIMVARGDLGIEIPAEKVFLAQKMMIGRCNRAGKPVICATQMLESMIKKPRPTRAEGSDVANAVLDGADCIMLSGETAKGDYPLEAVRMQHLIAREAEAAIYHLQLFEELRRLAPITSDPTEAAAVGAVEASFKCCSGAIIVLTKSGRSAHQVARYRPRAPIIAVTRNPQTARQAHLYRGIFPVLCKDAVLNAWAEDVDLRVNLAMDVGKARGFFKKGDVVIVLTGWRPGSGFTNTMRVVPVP
T2 sequence (P14618 1-531 isoform P14618-2, species assumed): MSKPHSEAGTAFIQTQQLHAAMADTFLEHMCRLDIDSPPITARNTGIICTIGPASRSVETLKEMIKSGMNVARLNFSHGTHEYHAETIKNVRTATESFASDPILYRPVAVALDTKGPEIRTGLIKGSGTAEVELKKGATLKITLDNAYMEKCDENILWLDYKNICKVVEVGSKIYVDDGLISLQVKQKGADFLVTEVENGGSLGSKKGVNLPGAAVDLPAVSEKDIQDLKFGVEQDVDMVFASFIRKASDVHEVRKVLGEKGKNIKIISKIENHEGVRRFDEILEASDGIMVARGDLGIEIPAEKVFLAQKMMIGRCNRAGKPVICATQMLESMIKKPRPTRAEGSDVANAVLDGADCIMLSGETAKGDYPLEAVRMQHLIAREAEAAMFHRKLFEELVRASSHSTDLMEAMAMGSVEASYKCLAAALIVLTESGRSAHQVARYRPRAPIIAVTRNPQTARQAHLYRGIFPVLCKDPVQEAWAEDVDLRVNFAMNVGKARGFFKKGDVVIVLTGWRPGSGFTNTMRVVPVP

- % Activation of PKM2 by FBP (PKM2 [1]; 0.1 μM FBP): 62%
- % Activation of PKM2 by FBP (PKM2 [1]; 0.3 μM FBP): 89%
- % Activation of PKM2 by FBP (PKM2 [1]; 1 μM FBP): 114%
- FBP concentration able to compete for binding of recombinant PKM2 to phosphoTyr peptides (PKM2 [3]): 20 µM
- 14C FBP retained on the PKM2 protein (PKM2 [4]; estimated upon further analysis): roughly half
- more 14C counts than PKM1 sample and no-protein control (PKM2 [4]; ~10 μM 14C-FBP, 1 μM protein, after dialysis): 52±5%
Compound: O=C(COP(=O)(O)O)[C@@H](O)[C@H](O)[C@H](O)COP(=O)(O)O [FBP, fructose-1,6-bisphosphate]
- 14C counts retained in PKM1 sample (recombinant PKM1): same amount of ^14C counts as the no-protein control sample
- Ka values for FBP binding to PKM2 (PKM2 [2]): micromolar range

- inhibition at 10 µM (PKM2 [8]; 0.01 mM compound): 21%
- inhibition at 100 µM (PKM2 [8]; 0.1 mM compound): 36%
- inhibition at 1000 µM (PKM2 [8]; 1 mM compound): 55%
Compound: Cc1ccc(C)n1-c1ccc(O)c(C(=O)O)c1

- inhibition of PKM2 activity (PKM2 [9]): 20-30%
- FBP retained on / released from PKM2 (PKM2 [7]): release of the majority of the FBP
Compound: GGAVDDDpYAQFANGG (GGAVDDD[pY]AQFANGG) [P-M2tide]

The next lines start with the compound.

Compound: pervanadate
- reduction in 3H that immunoprecipitated with PKM2 (Flag-tagged PKM2): 30±13%
- increase in the incorporation of metabolites from 14C-glucose into lipids (PKM2-expressing cells [5]; PKM2-expressing cells): 25%
- 14C incorporation into lipids (PKM2-expressing cells [5]; cells expressing the KE point mutant of PKM2): no significant increase
- decrease in oxygen consumption (PKM2-expressing cells [6]; M2KE-expressing cells): 15±4%
- decrease in oxygen consumption (PKM2-expressing cells [6]; PKM2-expressing cells): 36±1%
- decrease in total pyruvate kinase activity (pyruvate kinase; 293, A549 and H1299 cells, FIG. 6c): 20-30%
- pyruvate kinase activity in M1-, M2-, M2KE-, L-expressing knockdown cells (pyruvate kinase; H1299 knockdown/rescue cells, FIG. 6g): specific inhibition of pyruvate kinase activity only in the wild-type M2-expressing cells

Compound: GGAVDDDYAQFANGG [NP-M2tide]
- FBP retained on / released from PKM2 (PKM2 [7]): significant amount of FBP remaining bound to PKM2

Compound: CC[C@H]1/C=C/C=C/C[C@@H](C)[C@H](O)[C@@](C)(O)C(=O)[C@@H](C)[C@H](O)[C@@H](C)C(=O)[C@@H](C)[C@H](O)[C@@H](C)/C=C/C(=O)O[C@@H]2[C@H](C)[C@H](CC1)O[C@]1(CC[C@H](C)[C@H](C[C@@H](C)O)O1)[C@H]2C [oligomycin]
- effect on proliferation rate (M1 and M2 rescue cells): affected the proliferation rate of the M1 cells significantly more than the M2 cells
